According to patent US10098346B2, “Diphenyliodonium salts as sulfidogenesis inhibitors and antimicrobials” (Ecolab USA Inc., priority 2015, dated 2018):

Columns and labels:
Assay type in all cases: cell-based
[1] = test system: hydrogen sulfide production by sulfur utilizing prokaryote; test: Hydrogen sulfide test kit (HACH, Model HS-C) in injection water aliquots; settings: injection water (synthetic seawater, produced water, lactate, thiosulfate); 0.1-100 ppm; up to 305 days
Procedure: (§1) A hydrogen sulfide test kit (HACH, Model HS-C) and an AccuCount test kit (available from Nalco Champion) were used to test the efficacy of diphenyliodonium chloride (DPIC) and diphenyliodonium nitrate (DPIN) in 100 mL aliquots of injection water collected by mixing synthetic seawater, produced water from an oil and gas production facility off-shore California, USA, lactate, and thiosulfate. The results of the testing of DPIC at 11 days, 84 days, and 305 days at concentrations of 0.1 ppm, 1 ppm, 10 ppm, and 100 ppm are shown in FIG. 2. The results of the testing of DPIC at 84 days and 305 days at concentrations of 0.1 ppm, 1 ppm, and 10 ppm are shown in FIG. 3. The results of the testing of DPIC and DPIN at 1 day, 7 days, and 14 days at concentrations of 0.1 ppm, 1 ppm, and 10 ppm in synthetic seawater are shown in the FIG. 4. The results of testing of DPIC and DPIN at 4 hours, 1 day, and 30 days at concentrations of 10 ppm and 100 ppm in 80% produced water, 50% produced water, and 20% produced water are shown in FIG. 5.

active microbes = test: AccuCount test kit, level of active microbes in injection water aliquots; settings: injection water (synthetic seawater, produced water, lactate, thiosulfate); 0.1-100 ppm; up to 305 days
Procedure: as §1

[2] = Next-generation DNA sequencing, relative abundance of each genus in treated samples; settings: DPIC 1 ppm - 305 Days
[3] = test system: sulfur reducing prokaryotes; test: as above; settings: 1 ppm, 305 days

| SMILES | reducing the concentration hydrogen sulfide [1] | reducing the level of active microbes (active microbes) | Relative Abundance, Acholeplasma sp. (APB) [2] [%] | Relative Abundance, Citrobacter sp. (APB) [2] [%] | Relative Abundance, Cryptanaerobacter sp. (APB) [2] [%] | Relative Abundance, Kluyvera sp. (APB/GHB/NRB) [2] [%] | Relative Abundance, Mangrovibacter sp. (NRB) [2] [%] | Relative Abundance, Proteiniphilum sp. (APB) [2] [%] | Relative Abundance, Pseudomonas sp. (NRB/GHB) [2] [%] | Relative Abundance, Raoultella sp. (APB) [2] [%] | Relative Abundance, Serratia sp. (NRB/GHB) [2] [%] | Relative Abundance, Shimwellia sp. (APB) [2] [%] | Relative Abundance, Sphaerochaeta sp. (APB) [2] [%] | Relative Abundance, Thermovirga sp. (SRB) [2] [%] | sulfur reducing prokaryotes by DNA sequencing [3] |
| --- | --- | --- | --- | --- | --- | --- | --- | --- | --- | --- | --- | --- | --- | --- | --- |
| [Cl-].c1ccc([I+]c2ccccc2)cc1 [DPIC, diphenyliodonium chloride] | effective | effective | 0.2 | 0.3 | 0.1 | 3.5 | 0.2 | 0.3 | 0.5 | 28.8 | 59.3 | 6.7 | 0.2 | 0.1 | no detectable |
| O=[N+]([O-])[O-].c1ccc([I+]c2ccccc2)cc1 [DPIN, diphenyliodonium nitrate] | effective | effective |  |  |  |  |  |  |  |  |  |  |  |  |  |
